Results: PMC6332508, “A Promising PET Tracer for Imaging of α7 Nicotinic Acetylcholine Receptors in the Brain: Design, Synthesis, and in Vivo Evaluation of a Dibenzothiophene-Based Radioligand” (Molecules, 2015)

Columns and labels:
[1] = biological target: T1, α7 nAChR (Macaca mulatta, UniProt Q866A2); assay: Comparative PET study in a rhesus monkey; type: in vivo, rhesus monkey (Macaca mulatta)
T1 construct: from tissue; host or cells: brain of a living rhesus monkey
Method: One male rhesus monkey (Macaca mulatta, 6 years old, body weight = 10 kg) underwent two PET imaging sessions with [^18F]10a and [^18F]10b, respectively. The scans were conducted 19 days apart. The monkey was initially sedated by intramuscular ketamine at 10 mg∙kg^−1 at ~2 h before the PET scan and anesthetized by 1.5%–3% isoflurane throughout the imaging session. PET scan was performed using a FOCUS-220 PET scanner (Siemens Preclinical Solutions, Knoxville, TN, USA). After a transmission scan, 167 MBq of [^18F]10a (specific activity of 362 GBq∙μmol^−1) or 185 MBq of [^18F]10b (specific activity of 159 GBq·μmol^−1) were administered intravenously. Emission data were acquired in list mode for 240 min. Raw list-mode PET data was histogrammed (frames of 6 × 30 s; 3 × 1 min; 2 × 2 min; 46 × 5 min to scan termination) and reconstructed with 2D filtered back projection, using a 0.15 cm^−1 Shepp filter and including corrections for scanner normalization, detector dead time, randoms, and radiation scatter and attenuation. The PET images were then registered to MR images, acquired with a Siemens 3 T Trio scanner, with a 6-parameter rigid body registration. The MR native space was then normalized using nonlinear affine registration to a high-resolution rhesus monkey atlas using BioImage Suite 3.01 (http://www.bioimagesuite.org/index.html). Time-activity curves were extracted by mapping atlas-defined regions to PET native space using the optimal transformation matrices calculated in the registration and normalization steps. Regions extracted included amygdala, caudate, cerebellum, cingulate, cortical regions (frontal, occipital, and temporal cortex), hippocampus, putamen, thalamus, and pons.

[2] = Distribution coefficient, shake-flask method, n-octanol/PBS; type: physicochemical; settings: n-octanol/phosphate-buffered saline; n-octanol-PBS, pH 7.2, shake-flask, n = 3; read-out: log D7.2
Method: in vitro radiochemical stability of [^18F]10a was investigated in 0.9% NaCl solution, PBS (pH 7.2), and 0.01 M Tris-HCl (pH 7.4 at 21 °C) at 40 °C and in EtOH at room temperature for up to 90 min. Samples were taken at 15, 30, 60, and 90 min of incubation time and analyzed by radio-TLC and radio-HPLC. Log D7.2 of [^18F]10a was experimentally determined in n-octanol/phosphate-buffered saline (PBS; 0.01 M, pH 7.2) at room temperature by the shake-flask method in multiple distribution. Measurement was performed twice in triplicate.

T1 sequence (Q866A2 23-502): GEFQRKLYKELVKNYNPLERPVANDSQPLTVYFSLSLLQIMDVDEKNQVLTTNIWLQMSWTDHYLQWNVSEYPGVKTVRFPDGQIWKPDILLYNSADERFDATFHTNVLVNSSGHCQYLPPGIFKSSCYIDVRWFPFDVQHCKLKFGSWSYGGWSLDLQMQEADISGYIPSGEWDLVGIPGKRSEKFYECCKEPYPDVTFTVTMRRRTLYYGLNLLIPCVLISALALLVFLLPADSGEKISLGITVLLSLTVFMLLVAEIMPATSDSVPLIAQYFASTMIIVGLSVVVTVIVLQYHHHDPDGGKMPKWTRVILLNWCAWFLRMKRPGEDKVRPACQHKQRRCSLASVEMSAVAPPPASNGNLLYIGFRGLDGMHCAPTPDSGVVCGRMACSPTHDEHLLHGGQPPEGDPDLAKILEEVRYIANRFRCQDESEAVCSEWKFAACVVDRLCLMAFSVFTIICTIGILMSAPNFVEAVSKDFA

In the case of O=S1(=O)c2ccc([18F])cc2-c2ccc(N3CCN4CCC3CC4)cc21 [[^18F]10a], the “total volume of distribution VT” value ([1]; cerebellum) is reported as 28.5 mL∙cm^−3, the “total volume of distribution VT” value ([1]; thalamus) is reported as 48.1 mL∙cm^−3 and the logD [2] is reported as 1.3 ± 0.1.
